Results: US20240269308A1, “PRODRUGS OF TOPOISOMERASE I INHIBITOR FOR ADC CONJUGATIONS AND METHODS OF USE THEREOF” (priority 2022, published 2024)
≈ marks a conversion by molar mass, not a printed value.

Tests used:
[1] = M3385 metabolism in human liver S9 with NADPH and UDPGA; assay type: in vitro ADME; settings: 240 min
Text: (§1) Briefly, hepatocytes are complete liver cells, containing various first-phase and second-phase enzymes that can mediate various metabolic reactions; therefore, it is a better in vitro model to test metabolites. Liver S9 is the supernatant obtained by grinding and centrifuging the liver cells. The enzymes content is lower compared to Hepatocytes. It mainly contains CYP enzymes and some biphasic enzymes (but no biphasic coenzyme), so additional coenzyme (NADPH and UDPGA, etc.) is needed to mediate the biphasic reaction.
The metabolism of model compound M3385 was evaluated in human liver S9 with NADPH and UDPGA as follows:
(§2) Assay buffer: 100 mM potassium phosphate buffer (K+/Mg2+ buffer, pH7.4):
(§3) The initial stock of liver S9 was diluted in K+/Mg^2+ buffer, pH 7.4 from 20 mg/ml to 2× Liver S9 (2 mg/mL) with alamethicin (50 μg/mL):
(§4) 2×LS9/compound M3385 solution was prepared.
(§5) Time zero/T0: 199 μL 2 mg/mL liver S9 solution; 100 μL of 8 mM NADPH solution; 100 μL of 20 mM UDPGA solution; and 1200 μL of ACN were added, vortexed at 1000 rpm for 5 min, then 1 μL of 4 mM test compound solution was added.
T240 with a co-factor: 199 μL 2 mg/mL liver S9 solution; 100 μL of 8 mM NADPH solution; and 100 μL of 20 mM UDPGA solution were added. The T240 sample was prewarmed at 37° C. for 5 min and 1 μL of 4 mM test compound solution was added. After 240 min incubation, 1200 μL of ACN was added and then vortexed at 1000 rpm for 5 min.
(§6) Protein precipitation: quenched samples were centrifuged at 14000 rpm for 5 min.
(§7) Sample preparation: an aliquot of 1200 μL of the supernatant was evaporated under N2 stream until dry. Dried extracts were reconstituted with 200 μL of 25% aqueous ACN, vortexed for 2 minutes, centrifuged at 14000 rpm for 5 min, and then 3 μL of reconstituted supernatant were injected for LC-UV-MS analysis.

[2] = biological target: pGP (Homo sapiens, UniProt P08183); settings: not told
pGP, sequence (P08183 whole entry): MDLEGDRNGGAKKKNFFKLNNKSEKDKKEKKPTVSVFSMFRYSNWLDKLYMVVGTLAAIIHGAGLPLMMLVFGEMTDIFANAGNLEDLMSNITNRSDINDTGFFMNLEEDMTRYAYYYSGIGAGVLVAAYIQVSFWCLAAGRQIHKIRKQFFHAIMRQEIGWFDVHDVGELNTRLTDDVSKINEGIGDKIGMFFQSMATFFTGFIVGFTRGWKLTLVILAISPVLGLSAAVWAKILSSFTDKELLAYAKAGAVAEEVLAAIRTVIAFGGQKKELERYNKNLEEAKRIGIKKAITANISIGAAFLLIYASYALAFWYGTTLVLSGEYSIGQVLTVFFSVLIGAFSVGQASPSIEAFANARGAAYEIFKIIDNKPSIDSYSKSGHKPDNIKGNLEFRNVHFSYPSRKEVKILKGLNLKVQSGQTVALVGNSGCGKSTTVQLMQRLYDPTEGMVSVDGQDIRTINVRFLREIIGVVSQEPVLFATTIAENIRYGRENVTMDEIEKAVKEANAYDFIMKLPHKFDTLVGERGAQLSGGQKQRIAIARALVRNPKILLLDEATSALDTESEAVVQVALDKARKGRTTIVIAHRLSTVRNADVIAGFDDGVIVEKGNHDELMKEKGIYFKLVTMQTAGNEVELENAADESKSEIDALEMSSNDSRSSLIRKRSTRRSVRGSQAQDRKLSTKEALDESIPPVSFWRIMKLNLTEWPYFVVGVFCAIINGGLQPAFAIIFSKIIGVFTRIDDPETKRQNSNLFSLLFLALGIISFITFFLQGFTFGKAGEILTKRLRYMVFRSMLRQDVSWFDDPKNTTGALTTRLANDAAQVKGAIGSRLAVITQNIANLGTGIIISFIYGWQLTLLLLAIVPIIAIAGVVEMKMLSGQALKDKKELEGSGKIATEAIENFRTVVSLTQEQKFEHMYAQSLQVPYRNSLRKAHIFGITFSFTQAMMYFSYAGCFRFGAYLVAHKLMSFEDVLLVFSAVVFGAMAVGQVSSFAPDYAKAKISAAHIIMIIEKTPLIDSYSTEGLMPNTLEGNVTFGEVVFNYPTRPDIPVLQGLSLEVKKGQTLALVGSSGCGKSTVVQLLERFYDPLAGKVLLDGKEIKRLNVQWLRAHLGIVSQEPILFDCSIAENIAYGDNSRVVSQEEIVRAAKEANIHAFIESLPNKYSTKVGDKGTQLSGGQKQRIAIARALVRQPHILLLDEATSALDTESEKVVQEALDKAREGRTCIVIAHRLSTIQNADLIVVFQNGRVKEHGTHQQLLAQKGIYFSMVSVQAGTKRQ

[3] = Mouse whole blood stability test; assay type: in vitro ADME
Method: In vitro stability of Linker-Prodrug in mouse whole blood Scheme 15. Metabolism of LP1 (M2980) in whole blood.
Stock solution of test compound was provided in 100% DMSO. The stock solution for each compound was diluted into 500 μM with mixture of 50% acetonitrile, then diluted into mouse blood to achieve a final concentration of 1.0 μM. 1.0 μM of test compound in duplicate was incubated in blood at 37° C. Aliquots of 50 uL sample was collected at 0, 15, 30, 60, 120, 240, 480 min, and 24 hours. Reactions were terminated at various time points (0, 15, 30, 60, 120, 240, 480 min, 24 hours) by adding 200 μL of ice-cold acetonitrile containing internal standard with 1% formic acid and then ultrasound for 30 seconds. Plate was centrifuged (4000 rpm, 15 min). 50 μL of supernatants were transferred into a daughter plate containing 200 μL of H2O in each well. The samples were mixed well and analyzed with UPLC-MS/MS.
A Waters liquid chromatographic system was used. Detection was performed on AP14000 Q-Trap and AP15500 mass spectrometer equipped with TurbolonSpray (ESI) Interface (Applied Biosystems, Concord, Ontario, Canada). Analyst 1.5 and 1.6.2 software packages (Applied Biosystems) were used to control the LC-MS/MS system, as well as for data acquisition and processing.
Chromatographic separation was achieved on the Wates BEH C18 column (50*2.1 mm ID, 1.7 μm). The column temperature was maintained at ambient temperature (25° C.). The flow rate was maintained at 0.6 mL/min and the following mobile phases were used: water (0.1% formic acid, v/v) (phase A) and acetonitrile (0.1% formic acid, v/v) (phase B).
Test compounds (1.0 μM) were incubated in blood at 37° C. in duplicate. Aliquots of 50 uL sample was collected at 0, 15, 30, 60, 120, 240, 480 min, and 24 hours. Reactions were terminated at various time points (0, 15, 30, 60, 120, 240, 480 min, 24 hours by adding 200 μL of ice-cold acetonitrile containing internal standard with 1% formic acid, then ultrasound for 30 seconds. The plate was centrifuged (4000 rpm, 15 min). 50 μL of supernatants were transferred into a daughter plate containing 200 μL of water in each well. Samples were mixed well and analyzed with UPLC-MS/MS.
The % was calculated based on initial 1 uM as 100% and the standard concentration curve.

[4] = biological target: T1, BCRP (Homo sapiens, UniProt Q9UNQ0); settings: not told
T1 sequence (Q9UNQ0 1-655): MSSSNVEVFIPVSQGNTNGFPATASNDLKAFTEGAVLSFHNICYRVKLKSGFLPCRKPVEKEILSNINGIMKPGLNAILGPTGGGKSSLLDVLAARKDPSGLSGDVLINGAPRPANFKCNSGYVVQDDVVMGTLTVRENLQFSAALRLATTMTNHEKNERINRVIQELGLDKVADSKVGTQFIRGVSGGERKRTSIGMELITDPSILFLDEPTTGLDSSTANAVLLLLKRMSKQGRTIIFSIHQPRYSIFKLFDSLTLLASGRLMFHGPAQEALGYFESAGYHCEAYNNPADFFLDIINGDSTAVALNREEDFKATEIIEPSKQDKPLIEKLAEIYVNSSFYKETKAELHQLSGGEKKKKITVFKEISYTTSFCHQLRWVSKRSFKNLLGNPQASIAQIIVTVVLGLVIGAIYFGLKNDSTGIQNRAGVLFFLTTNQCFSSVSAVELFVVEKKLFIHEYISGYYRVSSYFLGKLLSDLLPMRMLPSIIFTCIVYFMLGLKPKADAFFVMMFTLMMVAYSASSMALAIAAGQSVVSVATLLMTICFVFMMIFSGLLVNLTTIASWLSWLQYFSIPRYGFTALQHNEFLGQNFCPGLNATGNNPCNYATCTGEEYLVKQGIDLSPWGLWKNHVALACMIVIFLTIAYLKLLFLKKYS

[5] = Special liability / stability (Certificate of Analysis of LP1, physical and chemical properties); assay type: physicochemical; settings: LP1 13g lot, free base
[6] = Solubility (Certificate of Analysis of LP1, physical and chemical properties); assay type: physicochemical; settings: LP1 13g lot, free base
[7] = M3385 metabolism in human liver S9 without cofactors NADPH and UDPGA; assay type: in vitro ADME; settings: M3385 incubated in human liver S9 without NADPH and UDPGA, 240 min; single peak (parent or metabolite)
Text: as §1, §2, §3, §4, §5
T240-without a co-factor: 199 μL 2 mg/mL liver S9 solution and 200 μL of buffer were added. The T240-w/o sample was prewarmed at 37° C. for 5 min and 1 μL of 4 mM test compound solution was added. After 240 min incubation, 1200 μL of ACN was added and then vortexed at 1000 rpm for 5 min.
as §6, §7

[8] = system: SK-BR-3 cells; assay: SKBR3 cell-based anti-proliferation / viability assay (CellTiter-Glo); parameters: species or system human; settings: read-out: SKBR3 EC50
Method: The anti-Her2 viability assay protocol is following.
0.1% BSA was added to the Opti-MEM reduced serum media [Gibco, cat #31985-070]. This assay media was used for the dilution of ADC and free drug.
Cells were seeded in their growth media into 96 well plates (Thermo #136101) one day prior to adding ADCs: 1000/well SKBR3 cells in 80 uL media (target positive cells), 1000/well NCI-N87 cells in 80 uL media (target positive cells), 1000/well Calu-3 in 80 uL media (target positive cells), and 800/well NCI-H1975 cells in 80ul media (target negative cells).
Serial dilutions of free drug in 100% DMSO (1:4 10 pts starting from 100 uM) were prepared. Serially diluted payload was transferred into Opti-Mem with 0.1% BSA (10 uL into 990 uL media). Serial dilutions of ADCs/isotype controls at 1:4 in Opti-Mem with 0.1% BSA (starting from 5×1000 nM) were prepared. 20ul assay media diluted ADC/isotype conjugates as well as free drug were transferred to above cells. The plates were incubated at 37° C., 5% CO2 for 6 days. Plates were developed by adding 100ul CellTiter Glo 2.0. RT 5-10 min. Plates were read with Envision plate reader. Data was analyzed using Prism. Only inner 60 well are used for the assay. The edge wells were filled with media to prevent dry out.
The cell line used in the anti-proliferation assays was SK-BR-3, a human breast, adenocarcinoma (pleural effusion) cell line; The cells were grown in McCoy's 5a Medium+10% FBS. To run the assay, the cells (80 μl, 1000 cells) were added to each well in a 96-well plate and incubated for 24 hours at 37° C. with CO2. Next, the cells were treated with test compounds (20 μl) at various concentrations in appropriate cell culture medium (total volume, 0.1 mL). The control wells contain cells and the medium but lack the test compounds. The plates were incubated for 144 hours at 37° C. with CO2. CTG reagent was then added to the wells (100 μl). After the plates were shaken for 10 min and then incubated for 10 min at room temperature, paste the clear bottom with white back seal and record luminescence with Envision. The inhibition % was calculated according to the following equation: inhibition %=[1-(assay-blank)/(control-blank)]×100.

[9] = system: HCT-15; assay: HCT-15 cell killing EC50 (−v / +v); assay type: cell-based

Compound: CC[C@@]1(O)C(=O)OCc2c1cc1n(c2=O)Cc2c-1nc1cc(F)c(C)c3c1c2[C@@H](NC(=O)COCNC(=O)CN)CC3 [ProDXd]
- Relative UV Abundance* (%), group total ([1]; human, 10 μM, pH 7.4): 3.94%
- pGP efflux rate [2]: Lower
- % of test compound in whole blood (initial 1 uM as 100%) ([3]; mouse, 0 hr, 1 μM): 100.0%
- % of test compound in whole blood (initial 1 uM as 100%) ([3]; mouse, 0.25 hr, 1 μM): 63.9%
- % of test compound in whole blood (initial 1 uM as 100%) ([3]; mouse, 0.5 hr, 1 μM): 39.0%
- % of test compound in whole blood (initial 1 uM as 100%) ([3]; mouse, 1 hr, 1 μM): 30.7%
- % of test compound in whole blood (initial 1 uM as 100%) ([3]; mouse, 2 hr, 1 μM): 14.8%
- % of test compound in whole blood (initial 1 uM as 100%) ([3]; mouse, 4 hr, 1 μM): 2.7%
- % of test compound in whole blood (initial 1 uM as 100%) ([3]; mouse, 8 hr, 1 μM): 0.3%
- % of test compound in whole blood (initial 1 uM as 100%) ([3]; mouse, 24 hr, 1 μM): 0.0%
- BCRP efflux rate [4]: Lower

Compound: CC[C@@]1(O)C(=O)OCc2c1cc1n(c2=O)Cc2c-1nc1cc(F)c(C)c3c1c2[C@@H](NC(=O)COCNC(=O)CNC(=O)OCc1ccc(NC(=O)[C@H](CCCNC(N)=O)NC(=O)[C@@H](NC(=O)CCOCCOCCOCCOCCNC(=O)COC2C#CCCCCC2)C(C)C)cc1)CC3 (stereo partly drawn) [LP1, {4-[(2S)-5-(carbamoylamino)-2-[(2S)-2-{1-[2-(cyclooct-2-yn-1-yloxy)acetamido]-3,6,9,12-tetraoxapentadecan-15-amido}-3-methylbutanamido]pentanamido]phenyl}methyl N-({[({[(10S,23S)-10-ethyl-18-fluoro-10-hydroxy-19-methyl-5,9-dioxo-8-oxa-4,15-diazahexacyclo[14.7.1.0^2,14.0^4,13.0^6,11.0^20,24]tetracosa-1,6(11),12,14,16,18,20(24)-heptaen-23-yl]carbamoyl}methoxy)methyl]carbamoyl}methyl)carbamate]
- Special liability (light) [5]: Light sensitive
- Special liability (pH stability) [5]: unstable at pH <3 or pH >11
- solubility ([6]; in water): 0.026 mM (≈ 36.3 µg/mL)
- solubility ([6]; organic solvent or mixture, in DMSO): 10 mM (≈ 14000 µg/mL)
- % of test compound in whole blood (initial 1 uM as 100%) ([3]; mouse blood, 37° C., 1.0 μM, 0 hr): 100.0%
- % of test compound in whole blood (initial 1 uM as 100%) ([3]; mouse blood, 37° C., 1.0 μM, 0.25 hr): 88.8%
- % of test compound in whole blood (initial 1 uM as 100%) ([3]; mouse blood, 37° C., 1.0 μM, 0.5 hr): 82.6%
- % of test compound in whole blood (initial 1 uM as 100%) ([3]; mouse blood, 37° C., 1.0 μM, 1 hr): 72.3%
- % of test compound in whole blood (initial 1 uM as 100%) ([3]; mouse blood, 37° C., 1.0 μM, 2 hr): 52.8%
- % of test compound in whole blood (initial 1 uM as 100%) ([3]; mouse blood, 37° C., 1.0 μM, 4 hr): 30.5%
- % of test compound in whole blood (initial 1 uM as 100%) ([3]; mouse blood, 37° C., 1.0 μM, 8 hr): 16.5%
- % of test compound in whole blood (initial 1 uM as 100%) ([3]; mouse blood, 37° C., 1.0 μM, 24 hr): 0.0%
- Metabolism in whole blood ([3]; mouse whole blood, 37° C.): metabolized to ProDXD, and then to DXd

Compound: CC[C@@](O)(C(=O)O)c1cc2n(c(=O)c1CO)Cc1c-2nc2cc(F)c(C)c3c2c1[C@@H](NC(=O)CO)CC3 [MP2R]
- Relative UV Abundance* (%) ([1]; M3385 incubated in human liver S9 with NADPH and UDPGA, single peak (parent or metabolite)): 0.14%
- Relative UV Abundance* (%) [7]: 0.18%

Compound: CC[C@@]1(O)C(=O)OCc2c1cc1n(c2=O)Cc2c-1nc1cc(F)c(C)c3c1c2[C@@H](N)CC3 [EXT, reference compound]
- EC50 [8]: 0.52 nM
- EC50 ([9]; +v): 1.13 nM
- EC50 ([9]; −v): 1.22 nM
